Results as given in the NIST ThermoML archive (doi:10.1016/j.fluid.2007.05.029).
± gives the expanded uncertainty stated by the source.

Legend:
[1] = xn = mol fraction of the nth substance listed

CC(O)CCC(C)O (stereo unspecified) [2,5-hexanediol]
Conditions	surface tension liquid-gas [mN/m]
283.15 K	32.3 ± 0.8
288.15 K	32 ± 0.8
293.15 K	31.9 ± 0.8
298.15 K	31.6 ± 0.8
303.15 K	31.3 ± 0.8
308.15 K	31 ± 0.8

CC(O)CCC(C)O (stereo unspecified) [2,5-hexanediol] + O
surface tension liquid-gas [mN/m], [1]
Conditions	283.15 K	288.15 K	293.15 K	298.15 K	303.15 K	308.15 K
x1 = 0.001	68.5 ± 1.1	67.9 ± 1	67.7 ± 1	67.2 ± 1	66.6 ± 1	65.9 ± 1
x1 = 0.0027	60.2 ± 1	59.6 ± 1	59.1 ± 1	58.6 ± 1	57.9 ± 1	57.3 ± 1
x1 = 0.0037	56.9 ± 1	56.3 ± 1	55.6 ± 1	55.2 ± 1	54.7 ± 1	54.2 ± 1
x1 = 0.0068	53.5 ± 1	52.9 ± 0.9	52.3 ± 0.9	51.6 ± 0.9	51.2 ± 0.9	50.7 ± 0.9
x1 = 0.0088	51.6 ± 0.9	51 ± 0.9	50.3 ± 0.9	49.5 ± 0.9	48.6 ± 0.9	48 ± 0.9
x1 = 0.0103	50 ± 0.9	49.4 ± 0.9	49.2 ± 0.9	48.7 ± 0.9	48.2 ± 0.9	47.8 ± 0.9
x1 = 0.0135	47.9 ± 0.9	47.5 ± 0.9	47.2 ± 0.9	46.8 ± 0.9	46.3 ± 0.9	45.8 ± 0.9
x1 = 0.0168	46.1 ± 0.9	45.7 ± 0.9	45.5 ± 0.9	45.2 ± 0.9	44.9 ± 0.9	44.6 ± 0.9
x1 = 0.0263	43.4 ± 0.9	43.2 ± 0.9	42.7 ± 0.9	42.1 ± 0.9	41.6 ± 0.9	41.3 ± 0.9
x1 = 0.037	41.5 ± 0.9	41.1 ± 0.9	40.4 ± 0.9	40 ± 0.9	39.7 ± 0.9	39.2 ± 0.9
x1 = 0.0462	40.4 ± 0.9	40.1 ± 0.9	39.7 ± 0.9	39 ± 0.9	38.7 ± 0.9	38.2 ± 0.9
x1 = 0.063	39.1 ± 0.9	38.6 ± 0.9	38.1 ± 0.9	37.4 ± 0.9	37.1 ± 0.8	36.6 ± 0.8
x1 = 0.0808	38.5 ± 0.9	38 ± 0.9	37.5 ± 0.9	37 ± 0.8	36.5 ± 0.8	36.2 ± 0.8
x1 = 0.096	38.3 ± 0.9	37.8 ± 0.9	37.3 ± 0.9	36.8 ± 0.8	36.3 ± 0.8	36 ± 0.8
x1 = 0.1117	37.7 ± 0.9	37.2 ± 0.9	36.9 ± 0.8	36.2 ± 0.8	35.9 ± 0.8	35.6 ± 0.8
x1 = 1	32.3 ± 0.8	32 ± 0.8	31.9 ± 0.8	31.6 ± 0.8	31.3 ± 0.8	31 ± 0.8

CC(O)CCCCO (stereo unspecified) [1,5-hexanediol] + O
surface tension liquid-gas [mN/m], [1]
Conditions	283.15 K	288.15 K	293.15 K	298.15 K	303.15 K	308.15 K
x1 = 0.001	65.3 ± 1	65 ± 1	63.8 ± 1	62.8 ± 1	62.3 ± 1	61.2 ± 1
x1 = 0.0021	58.3 ± 1	57.6 ± 1	56.9 ± 1	56.1 ± 1	55.7 ± 1	55 ± 1
x1 = 0.0037	55.3 ± 1	54.7 ± 1	54.2 ± 1	53.6 ± 1	52.9 ± 0.9	52.4 ± 0.9
x1 = 0.0053	53 ± 0.9	52.5 ± 0.9	51.7 ± 0.9	51.2 ± 0.9	50.6 ± 0.9	50.3 ± 0.9
x1 = 0.0071	51 ± 0.9	50.4 ± 0.9	49.9 ± 0.9	49.3 ± 0.9	48.8 ± 0.9	48.5 ± 0.9
x1 = 0.0089	50 ± 0.9	49.2 ± 0.9	48.6 ± 0.9	47.9 ± 0.9	47.3 ± 0.9	47 ± 0.9
x1 = 0.0111	47.5 ± 0.9	46.7 ± 0.9	46.4 ± 0.9	46 ± 0.9	45.7 ± 0.9	45 ± 0.9
x1 = 0.0145	45.3 ± 0.9	44.7 ± 0.9	44.5 ± 0.9	43.8 ± 0.9	43.4 ± 0.9	42.9 ± 0.9
x1 = 0.0194	43 ± 0.9	42.2 ± 0.9	41.3 ± 0.9	40.3 ± 0.9	39.8 ± 0.9	38.6 ± 0.9
x1 = 0.0324	39.7 ± 0.9	39.1 ± 0.9	38.6 ± 0.9	38 ± 0.9	37.5 ± 0.9	37 ± 0.8
x1 = 0.0507	38 ± 0.9	37.3 ± 0.9	36.9 ± 0.8	36.6 ± 0.8	35.7 ± 0.8	35 ± 0.8
x1 = 0.0738	36.9 ± 0.8	36.5 ± 0.8	36.1 ± 0.8	35.8 ± 0.8	34.9 ± 0.8	34.4 ± 0.8
x1 = 1	34.6 ± 0.9	34.3 ± 0.8	34.1 ± 0.8	33.9 ± 0.8	33.7 ± 0.8	33.5 ± 0.8

O [water] + OCCCCCCO
[1], x2 = 0
Conditions	surface tension liquid-gas [mN/m]
283.15 K	74.1 ± 1.1
288.15 K	73.4 ± 1.1
293.15 K	72.6 ± 1.1
298.15 K	71.8 ± 1.1
303.15 K	71 ± 1.1
308.15 K	70.2 ± 1.1

OCCCCCCO [1,6-hexanediol] + O
surface tension liquid-gas [mN/m], [1]
Conditions	283.15 K	288.15 K	293.15 K	298.15 K	303.15 K	308.15 K
x1 = 0.0013	63.8 ± 1	63.1 ± 1	62.3 ± 1	62 ± 1	61.1 ± 1	60.6 ± 1
x1 = 0.0017	62.5 ± 1	61.8 ± 1	61.2 ± 1	60.4 ± 1	59.7 ± 1	58.8 ± 1
x1 = 0.0021	61.5 ± 1	60.7 ± 1	60.3 ± 1	59.4 ± 1	58.5 ± 1	57.6 ± 1
x1 = 0.0029	60 ± 1	59.2 ± 1	58.6 ± 1	57.5 ± 1	56.8 ± 1	56 ± 1
x1 = 0.0057	56.9 ± 1	55.7 ± 1	55 ± 1	53.8 ± 1	53.3 ± 1	52.4 ± 0.9
x1 = 0.007	55.1 ± 1	54.3 ± 1	53.4 ± 1	52.1 ± 0.9	51.7 ± 0.9	50.9 ± 0.9
x1 = 0.0089	53.3 ± 1	52.4 ± 0.9	51.4 ± 0.9	50.2 ± 0.9	50 ± 0.9	49.4 ± 0.9
x1 = 0.014	50.6 ± 0.9	49.4 ± 0.9	49.1 ± 0.9	48.3 ± 0.9	48.3 ± 0.9	47.2 ± 0.9
x1 = 0.0159	49.4 ± 0.9	48.6 ± 0.9	48 ± 0.9	47.5 ± 0.9	47 ± 0.9	46.6 ± 0.9
x1 = 0.0237	48.5 ± 0.9	47.6 ± 0.9	47 ± 0.9	46.5 ± 0.9	46.1 ± 0.9	45.8 ± 0.9
x1 = 0.0373	46.1 ± 0.9	45.7 ± 0.9	45.4 ± 0.9	45 ± 0.9	44.5 ± 0.9	44.2 ± 0.9
x1 = 0.0463	44.4 ± 0.9	44.1 ± 0.9	43.9 ± 0.9	43.6 ± 0.9	43.3 ± 0.9	43 ± 0.9
x1 = 0.0545	43.7 ± 0.9	43.4 ± 0.9	43.2 ± 0.9	42.9 ± 0.9	42.5 ± 0.9	42.2 ± 0.9
x1 = 0.0742	43.5 ± 0.9	43.3 ± 0.9	43 ± 0.9	42.8 ± 0.9	42.4 ± 0.9	42.1 ± 0.9
x1 = 0.098	43.4 ± 0.9	43.1 ± 0.9	42.9 ± 0.9	42.7 ± 0.9	42.4 ± 0.9	42.1 ± 0.9
x1 = 0.1165	43.4 ± 0.9	43.1 ± 0.9	42.8 ± 0.9	42.6 ± 0.9	42.3 ± 0.9	42 ± 0.9

O [water] + CC(O)CCCCO
[1], x2 = 0
Conditions	surface tension liquid-gas [mN/m]
283.15 K	74.1 ± 1.1
288.15 K	73.4 ± 1.1
293.15 K	72.6 ± 1.1
298.15 K	71.8 ± 1.1
303.15 K	71 ± 1.1
308.15 K	70.2 ± 1.1

CCCCC(O)CO (stereo unspecified) [1,2-hexanediol] + O
surface tension liquid-gas [mN/m], [1]
Conditions	283.15 K	288.15 K	293.15 K	298.15 K	303.15 K	308.15 K
x1 = 0.001	55.1 ± 1	54.5 ± 1	54.3 ± 1	53.8 ± 1	53.3 ± 1	52.7 ± 0.9
x1 = 0.0016	47.5 ± 0.9	47.3 ± 0.9	47 ± 0.9	46.6 ± 0.9	46.3 ± 0.9	45.6 ± 0.9
x1 = 0.002	45.1 ± 0.9	44.5 ± 0.9	43.9 ± 0.9	43.4 ± 0.9	42.8 ± 0.9	42.3 ± 0.9
x1 = 0.0034	41.6 ± 0.9	40.6 ± 0.9	40 ± 0.9	39.3 ± 0.9	38.5 ± 0.9	38.1 ± 0.9
x1 = 0.0052	37.3 ± 0.9	36.3 ± 0.8	35.5 ± 0.8	34.7 ± 0.8	33.8 ± 0.8	33 ± 0.8
x1 = 0.0077	32.2 ± 0.8	31.4 ± 0.8	30.8 ± 0.8	30 ± 0.8	29.5 ± 0.8	28.9 ± 0.8
x1 = 0.0108	28.7 ± 0.8	28.1 ± 0.8	27.7 ± 0.8	27.2 ± 0.8	26.8 ± 0.8	26.4 ± 0.8
x1 = 0.014	27.6 ± 0.8	26.9 ± 0.8	26.3 ± 0.8	25.7 ± 0.8	25.2 ± 0.8	24.8 ± 0.8
x1 = 0.0175	26.4 ± 0.8	25.9 ± 0.8	25.7 ± 0.8	25.3 ± 0.8	24.8 ± 0.8	24.4 ± 0.8
x1 = 0.0251	26.2 ± 0.8	25.9 ± 0.8	25.5 ± 0.8	25.2 ± 0.8	25 ± 0.8	24.7 ± 0.8
x1 = 0.036	25.7 ± 0.8	25.5 ± 0.8	25.2 ± 0.8	25 ± 0.8	24.7 ± 0.8	24.5 ± 0.8
x1 = 0.046	25.7 ± 0.8	25.4 ± 0.8	25.2 ± 0.8	24.9 ± 0.8	24.7 ± 0.8	24.4 ± 0.8
x1 = 0.0514	25.7 ± 0.8	25.4 ± 0.8	25.2 ± 0.8	24.9 ± 0.8	24.7 ± 0.8	24.4 ± 0.8
x1 = 0.0655	25.6 ± 0.8	25.4 ± 0.8	25.1 ± 0.8	24.9 ± 0.8	24.4 ± 0.8	24.1 ± 0.8
x1 = 0.0831	25.6 ± 0.8	25.3 ± 0.8	25.1 ± 0.8	24.8 ± 0.8	24.5 ± 0.8	24.1 ± 0.8
x1 = 0.0968	25.1 ± 0.8	24.9 ± 0.8	24.6 ± 0.8	24.4 ± 0.8	24.3 ± 0.8	24 ± 0.8
x1 = 0.1119	24.9 ± 0.8	24.7 ± 0.8	24.4 ± 0.8	24.1 ± 0.8	23.9 ± 0.8	23.6 ± 0.8
x1 = 1	24.7 ± 0.8	24.4 ± 0.8	24.1 ± 0.8	23.8 ± 0.8	23.6 ± 0.8	23.3 ± 0.8

O [water] + CC(O)CCC(C)O
[1], x2 = 0
Conditions	surface tension liquid-gas [mN/m]
283.15 K	74.1 ± 1.1
288.15 K	73.4 ± 1.1
293.15 K	72.6 ± 1.1
298.15 K	71.8 ± 1.1
303.15 K	71 ± 1.1
308.15 K	70.2 ± 1.1

O [water]
Conditions	surface tension liquid-gas [mN/m]
283.15 K	74.1 ± 1.1
288.15 K	73.4 ± 1.1
293.15 K	72.6 ± 1.1
298.15 K	71.8 ± 1.1
303.15 K	71 ± 1.1
308.15 K	70.2 ± 1.1

O [water] + CCCCC(O)CO
[1], x2 = 0
Conditions	surface tension liquid-gas [mN/m]
283.15 K	74.1 ± 1.1
288.15 K	73.4 ± 1.1
293.15 K	72.6 ± 1.1
298.15 K	71.8 ± 1.1
303.15 K	71 ± 1.1
308.15 K	70.2 ± 1.1

CC(O)CCCCO (stereo unspecified) [1,5-hexanediol]
Conditions	surface tension liquid-gas [mN/m]
283.15 K	34.6 ± 0.9
288.15 K	34.3 ± 0.8
293.15 K	34.1 ± 0.8
298.15 K	33.9 ± 0.8
303.15 K	33.7 ± 0.8
308.15 K	33.5 ± 0.8

CCCCC(O)CO (stereo unspecified) [1,2-hexanediol]
Conditions	surface tension liquid-gas [mN/m]
283.15 K	24.7 ± 0.8
288.15 K	24.4 ± 0.8
293.15 K	24.1 ± 0.8
298.15 K	23.8 ± 0.8
303.15 K	23.6 ± 0.8
308.15 K	23.3 ± 0.8
